{"source": "patent US11992473B2", "about": "“Compositions and methods for diagnosis and treatment of conditions related to the quality of aging and longevity” (Epitracker, Inc., priority 2018, dated 2024)", "key": {"[1]": {"tested_on": "Venular endothelial cells, peripheral blood mononuclear cells", "experiment": "BioMAP Diversity PLUS SAg system (T cell stimulation, Th1 type chronic inflammation)", "assay_type": "cell-based, human", "method": "(§1) This study examined activities of small molecules discovered in dolphin serum that had protective profiles against diseases of aging which can impact quality of life and longevity. These molecules were tested across 12 human primary cell-based systems as part of DiscoverX's BioMAP Diversity Plus program. These systems are designed to model complex human tissue and disease biology of the vasculature, skin, lung, and inflammatory tissues. Quantitative measurements of biomarker activities across this broad panel, along with comparative analysis of biological activities of known bioactive agents were used to predict and compare the efficacy and function of the four compounds. Compounds were tested at four concentrations (740 nm and 2.2, 6.7 and 20 μM).\n(§2) BioMAP panels consist of human primary cell-based systems designed to model different aspects of the human body in an in vitro format. The 12 systems in the Diversity PLUS panel allow test agent characterization in an unbiased way across a broad set of systems modeling various human disease states. BioMAP systems are constructed with one or more primary cell types from healthy human donors, with stimuli (such as cytokines or growth factors) added to capture relevant signaling networks that naturally occur in human tissue or pathological conditions. Vascular biology is modeled in both a Th1 (3C system) and a Th2 (4H system) inflammatory environment, as well as in a Th1 inflammatory state specific to arterial smooth muscle cells (CASM3C system). Additional systems recapitulate aspects of the systemic immune response including monocyte-driven Th1 inflammation (LPS system) or T cell stimulation (SAg system), chronic Th1 inflammation driven by macrophage activation (lMphg system) and the T cell-dependent activation of B cells that occurs in germinal centers (BT system). The BE3C system (Th1) and the BF4T system (Th2) represent airway inflammation of the lung, while the MyoF system models myofibroblast-lung tissue remodeling. Lastly, skin biology is addressed in the KF3CT system modeling Th1 cutaneous inflammation and the HDF3CGF system modeling wound healing.\n(§3) Each test agent generates a signature BioMAP profile that is created from the changes in protein biomarker readouts within individual system environments. Biomarker readouts (7-17 per system) are selected for therapeutic and biological relevance, are predictive for disease outcomes or specific drug effects and are validated using agents with known mechanism of action (MoA). Each readout is measured quantitatively by immune-based methods that detect protein (e.g., ELISA) or functional assays that measure proliferation and viability. BioMAP readouts are diverse and include cell surface receptors, cytokines, chemokines, matrix molecules and enzymes. In total, the Diversity PLUS panel contains 148 biomarker readouts that capture biological changes that occur within the physiological context of the particular BioMAP system. Specific BioMAP activities have been correlated to in vivo biology, and multiparameter BioMAP profiles have been used to distinguish compounds based on MoA and target selectivity across diverse physiological systems.\n(§4) The Diversity PLUS panel allows test agent characterization in an unbiased way across a broad set of systems modeling various human disease states. These systems are designed to model complex human tissue and disease biology of the vasculature, skin, lung, and inflammatory tissues. Quantitative measurements of 148 biomarker activities across this broad panel, along with comparative analysis of biological activities from known bioactive agents, were used to predict and compare the efficacy and function of each selected compound at four concentrations (740 nm and 2.2, 6.7 and 20 μM). […]"}, "[2]": {"conditions": "white powder; room temperature; cited from earlier work"}, "[3]": {"tested_on": "Peripheral blood mononuclear cells, B cells", "experiment": "BioMAP Diversity PLUS BT system (T cell dependent B cell activation)", "assay_type": "cell-based, human", "conditions": "BT system", "method": "as §1, §2\n(§5) Each test agent generates a signature BioMAP profile that is created from the changes in protein biomarker readouts within individual system environments. Biomarker readouts (7-17 per system) are selected for therapeutic and biological relevance, are predictive for disease outcomes or specific drug effects and are validated using agents with known mechanism of action (MoA). Each readout is measured quantitatively by immune-based methods that detect protein (e.g., ELISA) or functional assays that measure proliferation and viability. BioMAP readouts are diverse and include cell surface receptors, cytokines, chemokines, matrix molecules and enzymes.\n(§6) The Diversity PLUS panel allows test agent characterization in an unbiased way across a broad set of systems modeling various human disease states. These systems are designed to model complex human tissue and disease biology of the vasculature, skin, lung, and inflammatory tissues.\n(§7) BioMAP systems are constructed with one or more primary cell types from healthy human donors, with stimuli (such as cytokines or growth factors) added to capture relevant signaling networks that naturally occur in human tissue or pathological conditions. Vascular biology is modeled in both a Th1 (3C system) and a Th2 (4H system) inflammatory environment, as well as in a Th1 inflammatory state specific to arterial smooth muscle cells (CASM3C system). Additional systems recapitulate aspects of the systemic immune response including monocyte-driven Th1 inflammation (LPS system) or T cell stimulation (SAg system), chronic Th1 inflammation driven by macrophage activation (lMphg system) and the T cell-dependent activation of B cells that occurs in germinal centers (BT system)."}, "Dermal fibroblasts": {"tested_on": "Dermal fibroblasts", "experiment": "BioMAP Diversity PLUS HDF3CGF system (wound healing and matrix/tissue remodeling)", "assay_type": "cell-based, human", "method": "as §1, §2, §5, §6, §7"}, "[4]": {"tested_on": "Keratinocytes, dermal fibroblasts", "experiment": "BioMAP Diversity PLUS KF3CT system (Th1 type cutaneous inflammation)", "assay_type": "cell-based, human", "method": "as §1\nBioMAP panels consist of human primary cell-based systems designed to model different aspects of the human body in an in vitro format. The 12 systems in the Diversity PLUS panel allow test agent characterization in an unbiased way across a broad set of systems modeling various human disease states. […]\nas §5, with “enzymes. In total, the Diversity PLUS panel contains 148 biomarker readouts that capture biological changes that occur within the physiological context of the particular BioMAP system. […]” for “enzymes.”"}, "[5]": {"tested_on": "Venular endothelial cells", "experiment": "BioMAP Diversity PLUS 4H system (Th2 type vascular inflammation)", "assay_type": "cell-based, human", "conditions": "6.7 μM", "method": "as §1, with “Compounds were tested at four concentrations (740 nm and 2.2, 6.7 and 20 μM).” left out\nas §5, with “enzymes. […]” for “enzymes.”"}, "Lung fibroblasts": {"tested_on": "Lung fibroblasts", "experiment": "BioMAP Diversity PLUS MyoF system (myofibroblast differentiation and tissue remodeling)", "assay_type": "cell-based, human", "method": "as §1, §2, §3, §4"}, "[6]": {"tested_on": "Bronchial epithelial cells", "experiment": "BioMAP Diversity PLUS BE3C system (Th1 type lung inflammation)", "assay_type": "cell-based, human", "method": "as §1, §2, §3, §4"}, "[7]": {"tested_on": "Macrophages, venular endothelial cells", "experiment": "BioMAP Diversity PLUS lMphg system (Th1 type chronic inflammation, macrophage activation)", "assay_type": "cell-based, human", "conditions": "/Mphg system", "method": "as §1, §2, §3, §4"}}, "data": [{"compound": "N[C@@H](CC(O)C(=O)O)C(=O)O", "note": "(some centres unmarked) [4-hydroxyglutamate]", "values": [{"measurement": "Significant log10 reduction compared to nontreated controls: T cell proliferation", "setting": "[1]; SAg system, 0.7 μM", "result": "−0.08", "unit": "log10"}, {"measurement": "Significant log10 reduction compared to nontreated controls: T cell proliferation", "setting": "[1]; SAg system, 2.2 μM", "result": "−0.09", "unit": "log10"}, {"measurement": "Significant log10 reduction compared to nontreated controls: T cell proliferation", "setting": "[1]; SAg system, 6.7 μM", "result": "−0.18", "unit": "log10"}, {"measurement": "T cell proliferation", "setting": "[1]; human cell system mimicking T-cell driven chronic inflammation and autoimmune diseases, concentrations ranging from 740 nm to 6.7 μM (FIG. 2)", "result": "decreased"}, {"measurement": "stability of the pure or purified metabolite", "setting": "[2]", "result": "stable at room temperature"}, {"measurement": "Significant log10 reduction compared to nontreated controls: Secreted interleukin 17F (IL-17F)", "setting": "[3]; 0.7 μM", "result": "−0.16", "unit": "log10"}, {"measurement": "decorin", "setting": "Dermal fibroblasts; human cell system mimicking wound healing, remodeling, fibrosis and chronic inflammation (FIG. 7)", "result": "inhibitory activity"}]}, {"compound": "CCCCCCCCCCCCCCC(=O)O[C@H](CC(=O)[O-])C[N+](C)(C)C", "note": "[Pentadecanoylcarnitine (C15), pentadecanoylcarnitine]", "values": [{"measurement": "Significant log10 reduction compared to nontreated controls: Interferon gamma-induced protein 10 (IP-10)/CXCL10", "setting": "[4]; 0.7 μM", "result": "−0.14", "unit": "log10"}, {"measurement": "Significant log10 reduction compared to nontreated controls: Interferon gamma-induced protein 10 (IP-10)/CXCL10", "setting": "[4]; 2.2 μM", "result": "−0.09", "unit": "log10"}, {"measurement": "Significant log10 reduction compared to nontreated controls: Interferon gamma-induced protein 10 (IP-10)/CXCL10", "setting": "[4]; 6.7 μM", "result": "−0.10", "unit": "log10"}, {"measurement": "Significant log10 reduction compared to nontreated controls: Vascular endothelial growth factor s (VEGFR2)", "setting": "[5]", "result": "−0.11", "unit": "log10"}, {"measurement": "Significant log10 reduction compared to nontreated controls: E-selectin", "setting": "[1]; SAg system, 6.7 μM", "result": "−0.11", "unit": "log10"}, {"measurement": "Significant log10 reduction compared to nontreated controls: T cell proliferation", "setting": "[1]; SAg system, 6.7 μM", "result": "−0.17", "unit": "log10"}, {"measurement": "Significant log10 reduction compared to nontreated controls: Alpha smooth muscle actin (αSMA)", "setting": "Lung fibroblasts; 0.7 μM", "result": "−0.16", "unit": "log10"}, {"measurement": "Significant log10 reduction compared to nontreated controls: Alpha smooth muscle actin (αSMA)", "setting": "Lung fibroblasts; 2.2 μM", "result": "−0.18", "unit": "log10"}, {"measurement": "Significant log10 reduction compared to nontreated controls: Alpha smooth muscle actin (αSMA)", "setting": "Lung fibroblasts; 6.7 μM", "result": "−0.26", "unit": "log10"}, {"measurement": "Significant log10 reduction compared to nontreated controls: Secreted interleukin 2 (IL-2)", "setting": "[3]; 2.2 μM", "result": "−0.11", "unit": "log10"}, {"measurement": "Significant log10 reduction compared to nontreated controls: Secreted interleukin 6 (IL-6)", "setting": "[3]; 6.7 μM", "result": "−0.13", "unit": "log10"}, {"measurement": "Significant log10 reduction compared to nontreated controls: Tumor necrosis factor alpha (TNFα)", "setting": "[3]; 6.7 μM", "result": "−0.10", "unit": "log10"}, {"measurement": "Significant log10 reduction compared to nontreated controls: Interferon-inducible T cell alpha chemoattractant (I-TAC)/CXCL11", "setting": "[6]; 0.7 μM", "result": "−0.13", "unit": "log10"}, {"measurement": "Significant log10 reduction compared to nontreated controls: Interleukin 1 alpha (IL-1α)", "setting": "[6]; 0.7 μM", "result": "−0.06", "unit": "log10"}, {"measurement": "Significant log10 reduction compared to nontreated controls: Interferon-inducible T cell alpha chemoattractant (I-TAC)/CXCL11", "setting": "[6]; 2.2 μM", "result": "−0.17", "unit": "log10"}, {"measurement": "Significant log10 reduction compared to nontreated controls: Interleukin 1 alpha (IL-1α)", "setting": "[6]; 2.2 μM", "result": "−0.06", "unit": "log10"}, {"measurement": "Significant log10 reduction compared to nontreated controls: Matrix metalloproteinase 1 (MMP-1)", "setting": "[6]; 2.2 μM", "result": "−0.05", "unit": "log10"}, {"measurement": "Significant log10 reduction compared to nontreated controls: Matrix metalloproteinase 9 (MMP-9)", "setting": "[6]; 2.2 μM", "result": "−0.08", "unit": "log10"}, {"measurement": "Significant log10 reduction compared to nontreated controls: Plasminogen activation inhibitor 1 (PAI-1)", "setting": "[6]; 2.2 μM", "result": "−0.08", "unit": "log10"}, {"measurement": "Significant log10 reduction compared to nontreated controls: Tissue plasminogen activator (tPA)", "setting": "[6]; 2.2 μM", "result": "−0.11", "unit": "log10"}, {"measurement": "Significant log10 reduction compared to nontreated controls: Human leukocyte antigen-DR isotype (HLA-DR)", "setting": "[6]; 6.7 μM", "result": "−0.63", "unit": "log10"}, {"measurement": "Significant log10 reduction compared to nontreated controls: Interferon gamma-induced protein 10 (IP-10)/CXCL10", "setting": "[6]; 6.7 μM", "result": "−0.1", "unit": "log10"}, {"measurement": "Significant log10 reduction compared to nontreated controls: Interferon-inducible T cell alpha chemoattractant (I-TAC)/CXCL11", "setting": "[6]; 6.7 μM", "result": "−0.54", "unit": "log10"}, {"measurement": "Significant log10 reduction compared to nontreated controls: Interleukin 1 alpha (IL-1α)", "setting": "[6]; 6.7 μM", "result": "−0.19", "unit": "log10"}, {"measurement": "Significant log10 reduction compared to nontreated controls: Interleukin 8 (IL-8)/CXCL8", "setting": "[6]; 6.7 μM", "result": "−0.21", "unit": "log10"}, {"measurement": "Significant log10 reduction compared to nontreated controls: Matrix metalloproteinase 1 (MMP-1)", "setting": "[6]; 6.7 μM", "result": "−0.27", "unit": "log10"}, {"measurement": "Significant log10 reduction compared to nontreated controls: Matrix metalloproteinase 9 (MMP-9)", "setting": "[6]; 6.7 μM", "result": "−0.34", "unit": "log10"}, {"measurement": "Significant log10 reduction compared to nontreated controls: Monokine induced by gamma interferon (MIG)/CXCL9", "setting": "[6]; 6.7 μM", "result": "−0.60", "unit": "log10"}, {"measurement": "Significant log10 reduction compared to nontreated controls: Plasminogen activation inhibitor 1 (PAI-1)", "setting": "[6]; 6.7 μM", "result": "−0.24", "unit": "log10"}, {"measurement": "Significant log10 reduction compared to nontreated controls: Tissue plasminogen activator (tPA)", "setting": "[6]; 6.7 μM", "result": "−0.43", "unit": "log10"}, {"measurement": "Significant log10 reduction compared to nontreated controls: Matrix metalloproteinase 1 (MMP-1)", "setting": "Dermal fibroblasts; HDF3CGF system, 6.7 μM", "result": "−0.12", "unit": "log10"}, {"measurement": "Significant log10 reduction compared to nontreated controls: Monocyte chemoattractant protein 1 (MCP-1)", "setting": "[7]; 2.2 μM", "result": "−0.17", "unit": "log10"}, {"measurement": "Significant log10 reduction compared to nontreated controls: Monocyte chemoattractant protein 1 (MCP-1)", "setting": "[7]; 6.7 μM", "result": "−0.25", "unit": "log10"}, {"measurement": "Significant log10 reduction compared to nontreated controls: Secreted interleukin 10 (IL-10)", "setting": "[7]; 6.7 μM", "result": "−0.13", "unit": "log10"}]}]}
